The values that follow are results of earlier work, collected in PubChem BioAssay AID1259410 (Chemical Carcinogenesis Research Information System (CCRIS), 2018).

For the data set, the system named is rodent tumor promotion studies, tumor incidence. The data set can be described thus: CCRIS tumor promotion studies. As to conditions: Doses [Promoter]: 0, Doses [Promoter]: 0.

As for `CC(C)(C)NC(=O)[C@H]1CC[C@H]2[C@@H]3CC=C4C=C(C(=O)O)CC[C@]4(C)[C@H]3CC[C@]12C`, where the note is “Carcinogen: 3,2'-DIMETHYL-4-AMINOBIPHENYL, 13394-86-0, Doses [Carcinogen]: 50 MG/KG BW ONCE/2 WK FOR FIRST 20 WK, 10, 50 MG/KG BW BY GAVAGE 3X/WK FOR 40 WK BEGINNING 20 WK POST CARCINOGEN TREATMENT (STUDY DURATION: 60 WK), 10, 50 MG/KG BW BY GAVAGE 3X/WK FOR 40 WK BEGINNING 20 WK POST CARCINOGEN TREATMENT (STUDY DURATION: 60 WK), Route [Carcinogen]: SUBCUTANEOUS, Route [Promoter]: ORAL, Species: RAT, Strain/Sex: F344/MALE”, the outcome is given as “prostate (ventral): adenocarcinoma”. For `CCCCCC1(CCCCCC(=O)OC2C(C)C3(O)C(C=C(CO)CC4(O)C(=O)C(C)=CC43)C3C(C)(C)C23OC(C)=O)OCC(C)(C)N1[O]` (configuration not stated), the outcome (Carcinogen: 7,12-DIMETHYLBENZ[A]ANTHRACENE, 57-97-6, Doses [Carcinogen]: 100 NMOL ONCE, 20 NMOL 2/WK FOR 24 WK BEGINNING 1 WK POST CARCINOGEN DOSE (STUDY DURATION: 25 WK), Route [Carcinogen]: DERMAL, Route [Promoter]: DERMAL, Species: MOUSE, Strain/Sex: NMRI/FEMALE) is “skin: tumor”.
